biological target: EGFP-HIF-1α fusion protein (Homo sapiens (Human), UniProt Q16665); assay: Stabilization of HIF-1α in EGFP-HIF-1α-CHOhIR cell model (nuclear EGFP fluorescence imaging); format: cell-based; conditions: CHOhIR cells stably expressing EGFP-HIF-1α; 3 h incubation; 0.03-30 μM; bipyridine 100 μM = 100% activation; read-out: Effects in stabilization of HIF-1α activity (EC50)
Protocol: CHOhIR cells (purchased from Thermo Fisher Scientific) which stably expressed EGFP-HIF-1α fusion protein were cultured under 37° C. and 5% CO2 in F12 culture solution containing 0.5 mg/ml G418 and 10% FBS, transplanted in an amount of 0.8×10^4 cells/100 μl/well on a 96-well culture plate that could be subjected to fluorescence detection, and cultured under 37° C. and 5% CO2 for 18-24 h. […] After the cells were incubated under 37° C. and 5% CO2 for 3 h, 12% formaldehyde in amount of 100 μl/well was added, fixation was carried out at room temperature for 30 min. Culture media was discarded, and the plate was washed with PBS twice, PBS containing 1 μM Hoechst was used, staining was performed at room temperature for 1 h. Detection was performed by IN Cell Analyzer 1000 live cell imaging system. Detection conditions were: 20× objective lens, excitation wavelength Ex=460 nm, emission wavelength […] to detect blue-fluorescence of cell nucleus passage; excitation wavelength Ex=475 nm, emission wavelength Em=535 nm, exposure 500 ms to detect green-fluorescence EGFP of cytoplasm passage, and pictures were taken continuously in 5 fields of view for each well. IN Cell Analyzer 1000 Multitarget Analysis Module of GE Company was used for analyzing aggregation of green-fluorescence of HIF-1α in cell nucleus, and BP100 μM treatment group was used as 100% activation of HIF-1α.

Row | SMILES | EC50
1 | COc1cccc(/C=N/NC(=O)CN(C)CCN(C)Cc2ccc(C(C)(C)C)cc2)c1O [Example 31, (E)-N′-(3-methoxy-2-hydroxybenzal)-2-{N-{2-[N-(4-tert-butylbenzyl)-N-methylamino]ethyl}N-methylamino}acethydrazide] | 2.76 ± 0.78 µM
2 | CC(C)c1ccc(CN(C)CCN(C)CC(=O)N/N=C/c2cccc(O)c2O)cc1 [Example 17, (E)-N′-(2,3-dihydroxybenzal)-2-{N-{2-[N-(4-isopropylbenzyl)-N-methylamino]ethyl}N-methylamino}acethydrazide] | 0.56 ± 0.15 µM
3 | CN(CCN(C)Cc1cccc2ccccc12)CC(=O)N/N=C/c1c(O)ccc2ccccc12 [Example 4, (E)-N′-[(2-hydroxynaphthalen-1-yl)methylene]-2-{N-{2-[N-(naphthalen-1-yl-methylene)-N-methylamino]ethyl}N-methylamino}acethydrazide] | 0.83 ± 0.18 µM
4 | CCN(CC)c1ccc(/C=N/NC(=O)CN(C)CCN(C)Cc2cccc(C(F)(F)F)c2)c(O)c1 [Example 10, (E)-N′-(4-N,N-diethylamino-2-hydroxybenzal)-2-{N-{2-[N-(3-trifluoromethylbenzyl)-N-methylamino]ethyl}N-methylamino}acethydrazide] | 0.6 ± 0.18 µM
5 | CCOc1cccc(/C=N/NC(=O)CN(C)CCN(C)Cc2ccc(C(C)(C)C)cc2)c1O [Example 32, (E)-N′-(3-ethoxy-2-hydroxybenzal)-2-{N-{2-[N-(4-tert-butylbenzyl)-N-methylamino]ethyl}N-methylamino}acethydrazide] | 1.86 ± 0.57 µM
6 | CCN(CC)c1ccc(/C=N/NC(=O)CN(C)CCN(C)Cc2ccc(C#N)cc2)c(O)c1 [Example 30, (E)-N′-(4-N,N-diethylamino-2-hydroxybenzal)-2-{N-{2-[N-(4-cyanobenzyl)-N-methylamino]ethyl}N-methylamino}acethydrazide] | 0.53 ± 0.02 µM
7 | CCN(CC)c1ccc(/C=N/NC(=O)CN(C)CCCN(C)Cc2ccc(C(C)(C)C)cc2)c(O)c1 [Example 33, (E)-N′-(4-N,N-diethylamino-2-hydroxybenzal)-2-{N-{3-[N-(4-tert-butylbenzyl)-N-methylamino]propyl}N-methylamino}acethydrazide] | 0.13 ± 0.02 µM
8 | CN(CCN(C)Cc1cccc(C(F)(F)F)c1)CC(=O)N/N=C/c1cccc(O)c1O [Example 11, (E)-N′-(2,3-dihydroxybenzal)-2-{N-{2-[N-(3-trifluoromethylbenzyl)-N-methylamino]ethyl}N-methylamino}acethydrazide] | 0.17 ± 0.04 µM
9 | CC(C)c1ccc(CN(C)CCN(C)CC(=O)N/N=C/c2cc(Br)ccc2O)cc1 [Example 18, (E)-N′-(3-bromo-6-hydroxybenzal)-2-{N-{2-[N-(4-isopropylbenzyl)-N-methylamino]ethyl}N-methylamino}acethydrazide] | 2.28 ± 0.67 µM
10 | COc1cccc(CN(C)CCN(C)CC(=O)N/N=C/c2cccc(O)c2O)c1 [Example 24, (E)-N′-(2,3-dihydroxybenzal)-2-{N-{2-[N-(3-methoxybenzyl)-N-methylamino]ethyl}N-methylamino}acethydrazide] | 0.82 ± 0.09 µM
11 | COc1cccc(/C=N/NC(=O)CN(C)CCN(C)Cc2ccc(C#N)cc2)c1O [Example 28, (E)-N′-(3-methoxy-2-hydroxybenzal)-2-{N-{2-[N-(4-cyanobenzyl)-N-methylamino]ethyl}N-methylamino}acethydrazide] | 8.42 ± 3.15 µM
12 | CN(CCN(C)Cc1ccc(C#N)cc1)CC(=O)N/N=C/c1c(O)ccc2ccccc12 [Example 26, (E)-N′-[(2-hydroxynaphthalen-1-yl)methylene]-2-{N-{2-[N-(4-cyanobenzyl)-N-methylamino]ethyl}N-methylamino}acethydrazide] | 0.98 ± 0.1 µM
13 | COc1cccc(CN(C)CCN(C)CC(=O)N/N=C/c2cc(C(C)(C)C)cc(C(C)(C)C)c2O)c1 [Example 22, (E)-N′-(3,5-di-tert-butyl-2-hydroxybenzal)-2-{N-{2-[N-(3-methoxybenzyl)-N-methylamino]ethyl}N-methylamino}acethydrazide] | 2.77 ± 0.31 µM
14 | CCOc1cccc(/C=N/NC(=O)CN(C)CCN(C)Cc2ccc(C#N)cc2)c1O [Example 29, (E)-N′-(3-ethoxy-2-hydroxybenzal)-2-{N-{2-[N-(4-cyanobenzyl)-N-methylamino]ethyl}N-methylamino}acethydrazide] | 2.77 ± 0.39 µM
15 | CCN(CC)c1ccc(/C=N/NC(=O)CN(C)CCN(C)Cc2cccc(OC)c2)c(O)c1 [Example 23, (E)-N′-(4-N,N-diethylamino-2-hydroxybenzal)-2-{N-{2-[N-(3-methoxybenzyl)-N-methylamino]ethyl}N-methylamino}acethydrazide] | 0.76 ± 0.15 µM
16 | CN(CCN(C)Cc1ccc(C#N)cc1)CC(=O)N/N=C/c1cc(C(C)(C)C)cc(C(C)(C)C)c1O [Example 27, (E)-N′-(3,5-di-tert-butyl-2-hydroxybenzal)-2-{N-{2-[N-(4-cyanobenzyl)-N-methylamino]ethyl}N-methylamino}acethydrazide] | 7.75 ± 1.33 µM
17 | COc1cccc(/C=N/NC(=O)CN(C)CCN(C)Cc2cccc3ccccc23)c1O [Example 1, (E)-N′-(3-methoxy-2-hydroxybenzal)-2-{N-{2-[N-(naphthalen-1-yl-methylene)-N-methylamino]ethyl}N-methylamino}acethydrazide] | 2.29 ± 0.27 µM
18 | CN(CCN(C)Cc1cccc2ccccc12)CC(=O)N/N=C/c1cc(C(C)(C)C)cc(C(C)(C)C)c1O [Example 2, (E)-N′-(3,5-di-tert-butyl-2-hydroxybenzal)-2-{N-{2-[N-(naphthalen-1-yl-methylene)-N-methylamino]ethyl}N-methylamino}acethydrazide] | 17.8 ± 4.81 µM
19 | CCOc1cccc(/C=N/NC(=O)CN(C)CCN(C)Cc2ccc(C(C)C)cc2)c1O [Example 13, (E)-N′-[(3-ethoxy-2-hydroxybenzal)methylene]-2-{N-{2-[N-(4-isopropylbenzyl)-N-methylamino]ethyl}N-methylamino}acethydrazide] | 0.8 ± 0.19 µM
20 | CCOc1cccc(/C=N/NC(=O)CN(C)CCN(C)Cc2cccc3ccccc23)c1O [Example 3, (E)-N′-(3-ethoxy-2-hydroxybenzal)-2-{N-{2-[N-(naphthalen-1-yl-methylene)-N-methylamino]ethyl}N-methylamino}acethydrazide] | 2.11 ± 0.85 µM
21 | CN(CCN(C)Cc1cccc(C(F)(F)F)c1)CC(=O)N/N=C/c1cc(C(C)(C)C)cc(C(C)(C)C)c1O [Example 8, (E)-N′-(3,5-di-tert-butyl-2-hydroxybenzal)-2-{N-{2-[N-(3-trifluoromethylbenzyl)-N-methylamino]ethyl}N-methylamino}acethydrazide] | 5.23 ± 1.39 µM
22 | CC(C)c1ccc(CN(C)CCN(C)CC(=O)N/N=C/c2c(O)ccc3ccccc23)cc1 [Example 14, (E)-N′-[(2-hydroxynaphthalen-1-yl)methylene]-2-{N-{2-[N-(4-isopropylbenzyl)-N-methylamino]ethyl}N-methylamino}acethydrazide] | 1.02 ± 0.34 µM
23 | CCN(CC)c1ccc(/C=N/NC(=O)CN(C)CCN(C)Cc2cccc3ccccc23)c(O)c1 [Example 5, (E)-N′-(4-N,N-diethylamino-2-hydroxybenzal)-2-{N-{2-[N-(naphthalen-1-yl-methylene)-N-methylamino]ethyl}N-methylamino}acethydrazide] | 0.78 ± 0.14 µM
24 | COc1cccc(CN(C)CCN(C)CC(=O)N/N=C/c2cc(Br)ccc2O)c1 [Example 25, (E)-N′-(3-bromo-6-hydroxybenzal)-2-{N-{2-[N-(3-methoxybenzyl)-N-methylamino]ethyl}N-methylamino}acethydrazide] | 7.19 ± 1.27 µM
25 | CC(C)c1ccc(CN(C)CCN(C)CC(=O)N/N=C/c2cc(C(C)(C)C)cc(C(C)(C)C)c2O)cc1 [Example 15, (E)-N′-(3,5-di-tert-butyl-2-hydroxybenzal)-2-{N-{2-[N-(4-isopropylbenzyl)-N-methylamino]ethyl}N-methylamino}acethydrazide] | 11.2 ± 2.87 µM

— US10196346B2, “Substituted acethydrazide derivative, preparation method and use thereof” (Institute of Pharmacology and Toxicology Academy of …, priority 2014, dated 2019)
